Reference: patent US8399480B2, “Hydroxymethyl pyrrolidines as beta 3 adrenergic receptor agonists” (Merck Sharp & Dohme Corp., priority 2008, dated 2013)
Like-named read-outs stand apart in the source and are kept apart here.

Biological target: T1, human β3 adrenergic receptor (Homo sapiens, UniProt P13945)
T1 construct: expressed in transfected cells; host or cells: Chinese hamster ovary (CHO) cells, stably transfected
Test: Functional assay: cAMP production (LANCE TR-FRET) in CHO cells stably transfected with cloned β3 adrenergic receptor
Format: cell-based
Description: Chinese hamster ovary (CHO) cells, stably transfected with the cloned β-adrenergic receptor (β1, β2 or β3) are harvested after 3 days of subculturing. Harvesting of cells is done with Enzyme-free Dissociation Media (Specialty Media). Cells are then counted and resuspended in assay buffer (Hank's Balanced salt solution supplemented with 5 mM HEPES, 0.1% BSA) containing a phosphodiesterase inhibitor (IBMX, 0.6 mM). The reaction is initiated by mixing 6,000 cells in 6 μL with 6 μL Alexa Fluor labeled cAMP antibody (LANCE™ kit) which is then added to an assay well containing 12 μL of compound (diluted in assay buffer to 2× final concentration). The reaction proceeds for 30 min at room temperature and is terminated by the addition of 24 μL detection buffer (LANCE™ kit). The assay plate is then incubated for 1 h at room temperature and time-resolved fluorescence measured on a Perkin Elmer Envision reader or equivalent. The unknown cAMP level is determined by comparing fluorescence levels to a cAMP standard curve.
The non-selective, full agonist β-adrenergic ligand isoproterenol is used at all three receptors to determine maximal stimulation. […] Data are analyzed using Microsoft Excel and Graphpad Prism or an internally developed data analysis software package.

[1] = Table 5, read-out: Human β3 Functional
[2] = Table 6, read-out: Human β3 Functional
[3] = given as a range, cAMP, CHO cells, read-out: human β3 functional activity
[4] = Table 10, β3AR-cAMP, read-out: Human β3 Functional
[5] = Table 11, read-out: Human β3 Functional
[6] = Table 12, read-out: Human β3 Functional

T1 sequence (P13945 whole entry): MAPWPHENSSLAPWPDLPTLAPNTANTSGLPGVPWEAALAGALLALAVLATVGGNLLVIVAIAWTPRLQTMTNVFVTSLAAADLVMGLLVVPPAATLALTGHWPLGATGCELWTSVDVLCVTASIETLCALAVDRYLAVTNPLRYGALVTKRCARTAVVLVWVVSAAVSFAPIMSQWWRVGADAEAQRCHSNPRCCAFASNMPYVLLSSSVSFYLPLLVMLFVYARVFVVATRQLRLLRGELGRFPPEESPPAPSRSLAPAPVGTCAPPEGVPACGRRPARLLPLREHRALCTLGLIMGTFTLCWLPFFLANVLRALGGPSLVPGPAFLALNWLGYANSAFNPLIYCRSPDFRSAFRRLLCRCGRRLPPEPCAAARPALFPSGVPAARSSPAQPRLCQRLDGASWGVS

With COc1ncncc1C(C)C(=O)Nc1ccc(C[C@@H]2CC[C@H]([C@H](O)c3ccccc3)N2)cc1 (single isomer, unassigned) [Example 213] the EC50 [1] was 11 to 100 nM.

CC(Oc1cccnn1)C(=O)Nc1ccc(C[C@@H]2CC[C@H]([C@H](O)c3ccccc3)N2)cc1 (single isomer, unassigned) [Example 214] showed an EC50 [1] of 101 to 1000 nM.

With CC(Oc1cccnn1)C(=O)Nc1ccc(C[C@@H]2CC[C@H]([C@H](O)c3ccccc3)N2)cc1 (single isomer, unassigned) [Example 215] the EC50 [1] was 11 to 100 nM.

CCC(C(=O)Nc1ccc(C[C@@H]2CC[C@H]([C@H](O)c3ccccc3)N2)cc1)n1nccn1 (single isomer, unassigned) [Example 216] gave an EC50 [1] of 1 to 10 nM.

With CCC(C(=O)Nc1ccc(C[C@@H]2CC[C@H]([C@H](O)c3ccccc3)N2)cc1)n1nccn1 (single isomer, unassigned) [Example 217] the EC50 [1] was 1 to 10 nM.

Work on CCC(C(=O)Nc1ccc(C[C@@H]2CC[C@H]([C@H](O)c3ccccc3)N2)cc1)n1cccn1 (single isomer, unassigned) [Example 218] yielded an EC50 [1] of 1 to 10 nM.

CCC(C(=O)Nc1ccc(C[C@@H]2CC[C@H]([C@H](O)c3ccccc3)N2)cc1)n1cccn1 (single isomer, unassigned) [Example 219] showed an EC50 [1] of 1 to 10 nM.

With COCCC(C(=O)Nc1ccc(C[C@@H]2CC[C@H]([C@H](O)c3ccccc3)N2)cc1)n1cccn1 (single isomer, unassigned) [Example 223] the EC50 [1] was 1 to 10 nM.

With COCCC(C(=O)Nc1ccc(C[C@@H]2CC[C@H]([C@H](O)c3ccccc3)N2)cc1)n1cccn1 (single isomer, unassigned) [Example 224] the EC50 [1] was 11 to 100 nM.

Nc1nc2c(s1)CCCC2C(=O)Nc1ccc(CC2CCC(C(O)c3ccccc3)N2)cc1 (single isomer, unassigned) [Example 227] gave an EC50 [2] of 101 to 1000 nM.

For Nc1nc2c(s1)CCCC2C(=O)Nc1ccc(CC2CCC(C(O)c3ccccc3)N2)cc1 (single isomer, unassigned) [Example 228], the EC50 [2] was 1000 to 3000 nM.

For Cc1nc2c(s1)CCCC2C(=O)Nc1ccc(CC2CCC(C(O)c3ccccc3)N2)cc1 (single isomer, unassigned) [Example 231], the EC50 [2] was 101 to 1000 nM.

Cc1nc2c(s1)CCCC2C(=O)Nc1ccc(CC2CCC(C(O)c3ccccc3)N2)cc1 (single isomer, unassigned) [Example 232] showed an EC50 [2] of 1000 to 3000 nM.

CC(C(=O)Nc1ccc(C[C@@H]2CC[C@H]([C@H](O)c3cccc(F)c3)N2)cc1)c1cscn1 (single isomer, unassigned) [Example 274] gave an EC50 [3] of 11 to 100 nM.

In the case of CC(C(=O)Nc1ccc(C[C@@H]2CC[C@H]([C@H](O)c3cccc(F)c3)N2)cc1)c1cscn1 (single isomer, unassigned) [Example 275], the EC50 [3] is reported as < 1 nM.

With Nc1nc2c(s1)CCC2C(=O)Nc1ccc(CC2CCC(C(O)c3cccc(F)c3)N2)cc1 (single isomer, unassigned) [Example 276] the EC50 [4] was 11 to 100 nM.

For Nc1nc2c(s1)CCC2C(=O)Nc1ccc(CC2CCC(C(O)c3cccc(F)c3)N2)cc1 (single isomer, unassigned) [Example 277], the EC50 [4] was < 1 nM.

Nc1nc2c(s1)CCC2C(=O)Nc1ccc(CC2CCC(C(O)c3ccc(F)cc3)N2)cc1 (single isomer, unassigned) [Example 282] showed an EC50 [5] of 11 to 100 nM.

In the case of Nc1nc2c(s1)CCC2C(=O)Nc1ccc(CC2CCC(C(O)c3ccc(F)cc3)N2)cc1 (single isomer, unassigned) [Example 283], the EC50 [5] is reported as < 1 nM.

CC(C(=O)Nc1ccc(CC2CCC(C(O)c3ccc(F)cc3)N2)cc1)c1cscn1 (single isomer, unassigned) [Example 285] was tested, and the EC50 [5] was 11 to 100 nM.

With CC(C(=O)Nc1ccc(CC2CCC(C(O)c3ccc(F)cc3)N2)cc1)c1cscn1 (single isomer, unassigned) [Example 286] the EC50 [5] was < 1 nM.

For Nc1nc2c(s1)CCC2C(=O)Nc1ccc(CC2CCC(C(O)c3ccc(F)c(F)c3)N2)cc1 (single isomer, unassigned) [Example 288], the EC50 [6] was 11 to 100 nM.

With Nc1nc2c(s1)CCC2C(=O)Nc1ccc(CC2CCC(C(O)c3ccc(F)c(F)c3)N2)cc1 (single isomer, unassigned) [Example 289] the EC50 [6] was < 1 nM.
